Earlier results on 54 compounds are cited in the CATMoS acute toxicity set (Mansouri et al. 2021).

Several values for one entry are separate records, joined by “and”; a condition that tells them apart may be missing. Equal entries are not always repeated.

This data set is described as follows: rat acute oral toxicity. Conditions: in vivo. The source says:
[…]The data set underlying the modeling effort for this project was initially compiled by NICEATM and U.S. EPA’s CCTE. Briefly, LD50 data were collected from rat acute oral systemic toxicity tests, including limit tests, ranges/confidence intervals, and discrete LD50 values. The full data set included 21,200 LD50 entries for 15,688 substances. […] Data were reviewed to ensure that LD50 values with obvious errors in the extracted data such as unit conversion errors (e.g., comma and decimal separator misplacements) were either fixed or removed. After this review, 16,209 LD50 values remained. Many of the chemicals represented had multiple LD50 entries, requiring that a single representative value per Chemical Abstracts Service Registry Number (CASRN) identifier be defined to facilitate modeling efforts. Based on ATWG feedback and to define the representative LD50 as a protective value while accounting for the distribution across multiple LD50s, the median of the lowest quartile was computed using only discrete LD50 values (omitting limit test data and range and confidence interval data). A detailed summary of the data compilation is available online on the NICEATM webpage dedicated to the collaborative modeling project (NTP 2020).
[…][…] For categorical designations, limit test and range/confidence interval LD50 data were integrated wherever possible. As such, the number of chemicals with end point values/calls varies across the modeling end points (Table 3) based on whether chemicals had representative LD50 values and/or other data. If a chemical had both, the representative value was used to determine categorical calls rather than limit test data. Some data were useable only for certain end points and categories depending on the thresholds. For example, ranges that spanned multiple hazard categories were considered only for the binary (very toxic/nontoxic) end points and omitted from rendering a determination for hazard category assignment.
[…]The final data set comprising 11,992 chemicals was split into training and evaluation sets […], respectively. This process was performed semirandomly by ordering chemicals based on the five end points (categorical and continuous LD50 values) and partitioning every fourth record into the evaluation set accordingly. This approach was taken to ensure an equivalent distribution of the LD50 values and the different hazard categories between the training and the evaluation sets without supervised sampling of the chemicals based on structures (Figure 1A). The sources of the chemical structures were also kept equivalent between the two sets, with chemical structures obtained from DSSTox, being the highest quality, representing over 75% of each set (Figure 1B).
With `CC[N+]1(CC)CCCO1`, the LD50 was 150 mg/kg. In the case of `Nc1ccc(N=Nc2ccc(O)cc2)cc1`, the LD50 was 1950 mg/kg. `CCOC(=O)N(Cc1ccccc1)C1CC1`: the LD50 was 1380 mg/kg.

As for `Nc1ccc2[nH]c3ccccc3c2c1`, the LD50 was 1520 mg/kg. `CCOC(C(=O)N(C)CCN(C)C)(c1ccccc1)c1ccccc1`: the 50% lethal dose (LD50) is 565 mg/kg. As to `C[Si]1(C)OCCN(CCO)CCO1`, the LD50 was 3400 mg/kg.

On to `Cc1ccccc1-n1c(CF)nc2ccc(N)cc2c1=O`, for which the LD50 was 249 mg/kg. Consider `CCOP(=S)(OC(C)C)Sc1nc(C)cc(C)n1` (centres undefined), for which the LD50 is 68 mg/kg. As for `C[N+](C)(C)Cc1ccccc1`, the LD50 was 25 mg/kg.

With `Nc1cccc(-n2ccccc2=O)c1`, the LD50 was 2300 mg/kg. As for `C=C(OP(=O)(OC)OC)c1ccc(Cl)cc1Cl`, the LD50 was 2350 mg/kg. On to `CC(O)CF` (centres undefined), for which the LD50 is 3260 mg/kg.

Regarding `c1cc2c(c(NC3=NCCN3)c1)CCC2`, the median lethal dose (LD50) is 481 mg/kg. Regarding `CC=Cc1ccccc1`, the 50% lethal dose (LD50) is 3600 mg/kg. As for `O=C(O)c1cc([N+](=O)[O-])cc([N+](=O)[O-])c1O`, the LD50 is 860 mg/kg. In the case of `c1ccc(C(c2ccccc2)(c2ccccc2)N2CCOCC2)cc1`, the 50% lethal dose (LD50) is 83 mg/kg.

With `O=C(NNCS(=O)(=O)O)c1ccncc1`, the LD50 is 14400 mg/kg. As to `CCCC(C)C1(CC)C(=O)N=C(S)NC1=O` (centres undefined), the LD50 is 117 mg/kg. Take `O=C(CCl)c1ccc(O)cc1`: the LD50 is 230 mg/kg. Consider `O=C(O)c1cc(Cl)cc([N+](=O)[O-])c1Cl`, for which the LD50 was 2640 mg/kg and 3500 mg/kg.

As for `CC(C)CNC(=S)NCC(C)C`, the LD50 was 800 mg/kg. Consider `O=NN(CCCl)C(=O)NCCS(=O)(=O)N1CCCCC1`, for which the median lethal dose (LD50) was 125 mg/kg.

As for `CCS(=O)(=O)CCSP(=O)(OC)OC`, the LD50 was 32.4 mg/kg. `OCC(Br)CBr` (centres undefined): the LD50 is 681 mg/kg. Regarding `COc1ccc(OC)c2[nH]c(C(F)(F)F)nc12`, the LD50 is 60 mg/kg. For `CN(C)CC[C@@H](c1ccc(Br)cc1)c1ccccn1`, the LD50 is 191 mg/kg. `O=C(NN1CCCC1)NS(=O)(=O)c1ccc(Cl)cc1`: the LD50 is 4100 mg/kg. `Oc1ccc(-c2ccccc2)cc1CN1CCCC1`: the LD50 was 30 mg/kg.

As for `O=C1CCC(=O)N1`, the LD50 was 14000 mg/kg. With `CN1CCC(c2c[nH]c3ccccc23)C1` (centres undefined), the 50% lethal dose (LD50) is 413 mg/kg. For `OCCC1CCCCC1`, the LD50 was 940 mg/kg. For `CCCCCCCC=O`, the median lethal dose (LD50) is 5630 mg/kg. Turning to `O=C(O)CCC1(CCC(=O)O)c2ccccc2-c2ccccc21`, the 50% lethal dose (LD50) was 2140 mg/kg.

As for `CCCCC(CC)COC(=O)COc1cc(Cl)c(Cl)cc1Cl` (centres undefined), the LD50 is 500 mg/kg. For the compound `CC(C)NCC(O)COc1cccc2cc(C(C)O)oc12` (centres undefined), the LD50 is 2130 mg/kg. In the case of `CC(C)=CCCC(C)CC(=O)O` (centres undefined), the LD50 was 2610 mg/kg. Regarding `CN(C)C#N`, the LD50 is 146 mg/kg. Consider `COC(=O)Cc1cccc2ccccc12`, for which the LD50 was 1900 mg/kg.

As for `COC(=O)CC1CCCCC1`, the LD50 is 2500 mg/kg. Consider `CC(=O)Nc1ccc(C(=O)CCl)cc1`, for which the LD50 is 2150 mg/kg. As for `COc1cc(N)ccc1N`, the LD50 is 60 mg/kg and 70 mg/kg.

Take `CCCCCCCCCCF`: the LD50 was 5 mg/kg. For `CC(C)(C)N1CCC(c2ccccc2)(c2ccccc2)CC1`, the LD50 is 165 mg/kg. For `COc1ccc2c(c1)c(CC(=O)O)c(C)n2C(=O)/C=C/c1ccccc1`, the 50% lethal dose (LD50) was 900 mg/kg. Regarding `CCCCCCCCCCC(C)c1ccc(S(=O)(=O)O)cc1` (centres undefined), the LD50 is 437 mg/kg. In the case of `CCC(C)Nc1ccc(NC(C)CC)cc1` (centres undefined), the LD50 is 148 mg/kg. With `O=[N+]([O-])c1cc(Cl)c(N=Nc2ccc(N3CCS(=O)(=O)CC3)cc2)c(Cl)c1`, the LD50 was 3200 mg/kg. `COc1ccc(O)cc1`: the LD50 is 1600 mg/kg. As to `COC(=O)c1ccc(I)cc1S(=O)(=O)NC(=O)Nc1nc(C)nc(OC)n1`, the median lethal dose (LD50) is 2680 mg/kg.

Turning to `O=C(Nc1ccc(Cl)cc1)c1cc(Cl)cc(-c2ccc(Cl)cc2)c1O`, the LD50 is 2810 mg/kg. Regarding `CCOP(=S)(OCC)Oc1ccc(=O)n(-c2ccccc2)n1`, the LD50 was 424 mg/kg.

As for `C=CC(=O)OCC(C)O` (centres undefined), the LD50 is 250 mg/kg. For `CCCOP(=O)(OC=C(Cl)Cl)OCCCl` (centres undefined), the LD50 is 25 mg/kg. Consider `COc1ccc(CCl)cc1OC`, for which the LD50 is 4700 mg/kg.

In general, LD50 refers to the dose at which mortality reaches 50%.
